pIC50: −log10 of the molar value. Values after ≈ are worked out from the molar mass of the structure shown.
How the values were obtained:
Acetylcholinesterase [1] = biological target: T1, Acetylcholinesterase (Homo sapiens, UniProt P22303); assay: Inhibition of AChE (unknown origin)
Cholinesterase = Cholinesterase (Homo sapiens, UniProt P06276); assay: Inhibition of human BChE using butyrylthiocholine iodide as substrate incubated for 15 mins by spectrophotometric Ellman's method
Mushroom tyrosinase = Mushroom tyrosinase (Agaricus bisporus, UniProt O42713+Q00024+C7FF04+C7FF05); assay: Inhibition of mushroom tyrosinase using L-DOPA as substrate by spectrophotometric analysis; assay type: protein assay
Acetylcholinesterase [2] = biological target: T1, Acetylcholinesterase; assay: Inhibition of AChE (unknown origin) using acetylthiocholine iodide as substrate by Ellman's method
[3] = Antioxidant activity assessed as DPPH radical scavenging activity incubated for 20 mins by spectrophotometric method; assay type: functional
Staphylococcus aureus [4] = assay: Antimicrobial activity against Staphylococcus aureus […] assessed as reduction in bacterial growth incubated for 24 hrs by Mueller-Hinton agar based analysis; assay type: functional
[5] = test system: Staphylococcus epidermidis; assay: Antimicrobial activity against Staphylococcus epidermidis ATCC 12228 assessed as reduction in bacterial growth incubated for 24 hrs by Mueller-Hinton agar based analysis; assay type: functional
Escherichia coli [6] = assay: Antibacterial activity against Escherichia coli assessed as reduction in bacterial growth incubated for 24 hrs by Mueller-Hinton agar based analysis; assay type: functional
Pseudomonas aeruginosa = assay: Antibacterial activity against Pseudomonas aeruginosa ATCC 15442 assessed as reduction in bacterial growth incubated for 24 hrs by Mueller-Hinton agar based analysis; assay type: functional
[7] = Antibacterial activity against Salmonella enterica subsp. enterica serovar Pullorum assessed as inhibition of bacterial growth incubated for 18 hrs by CLSI protocol based microbroth dilution method; assay type: functional
Escherichia coli [8] = assay: Antibacterial activity against Escherichia coli ATCC 25922 assessed as zone of inhibition incubated for 24 hrs by agar diffusion method; assay type: functional
Escherichia coli [9] = assay: Antibacterial activity against Escherichia coli assessed as reduction in bacterial growth inhibition; assay type: functional
Salmonella typhimurium = assay: Antibacterial activity against Salmonella typhimurium DT104 assessed as reduction in bacterial growth inhibition; assay type: functional, Salmonella enterica subsp. enterica serovar Typhimurium
Salmonella enteritidis = assay: Antibacterial activity against Salmonella enterica subsp. enterica serovar Enteritidis assessed as reduction in bacterial growth inhibition; assay type: functional
Clostridium perfringens [10] = assay: Antibacterial activity against Clostridium perfringens assessed as reduction in bacterial growth inhibition; assay type: functional
Helicobacter pylori = assay: Antibacterial activity against Helicobacter pylori assessed as reduction in bacterial growth incubated for 24 hrs by broth micro-dilution method; assay type: functional
Escherichia coli [11] = assay: microbe, parasite or virus in culture; settings: ATCC 25922, 24 h
Clostridium perfringens [12] = assay: Antibacterial activity against Clostridium perfringens assessed as bacterial growth inhibition after 24 hrs by microdilution method; assay type: functional
Phytophthora capsici = assay: Antifungal activity against Phytophthora capsici; assay type: functional, organism-based
MIA PaCa-2 = assay: Growth inhibition of human MIA PaCa-2 cells measured for 48 hrs by SRB assay; assay type: functional
Bacillus subtilis = assay: Antibacterial activity against Bacillus subtilis assessed as zone of inhibition; assay type: functional
Proteus vulgaris = assay: Antimicrobial activity against Proteus vulgaris NCIM 2813 assessed as zone of inhibition incubated for 24 hrs by agar diffusion method; assay type: functional
Staphylococcus aureus [13] = assay: Antibacterial activity against Staphylococcus aureus ATCC 25923 assessed as zone of inhibition by agar diffusion method; assay type: functional

Sequence of Cholinesterase (P06276 whole entry): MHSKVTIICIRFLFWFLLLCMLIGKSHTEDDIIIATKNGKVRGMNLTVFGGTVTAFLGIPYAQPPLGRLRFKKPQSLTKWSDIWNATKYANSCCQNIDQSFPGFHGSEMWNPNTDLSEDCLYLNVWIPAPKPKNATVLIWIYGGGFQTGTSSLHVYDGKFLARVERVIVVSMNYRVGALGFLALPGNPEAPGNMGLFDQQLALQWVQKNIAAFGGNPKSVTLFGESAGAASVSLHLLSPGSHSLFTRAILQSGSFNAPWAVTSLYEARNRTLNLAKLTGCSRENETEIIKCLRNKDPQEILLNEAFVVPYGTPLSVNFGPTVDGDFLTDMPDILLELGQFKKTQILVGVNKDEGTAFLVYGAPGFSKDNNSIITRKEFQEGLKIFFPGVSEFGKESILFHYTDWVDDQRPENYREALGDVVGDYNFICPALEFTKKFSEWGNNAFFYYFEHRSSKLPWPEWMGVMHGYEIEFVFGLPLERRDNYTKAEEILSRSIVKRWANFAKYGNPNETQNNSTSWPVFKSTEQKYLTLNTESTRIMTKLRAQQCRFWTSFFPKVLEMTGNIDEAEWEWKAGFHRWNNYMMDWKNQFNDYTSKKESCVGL
T1 sequence (P22303 whole entry): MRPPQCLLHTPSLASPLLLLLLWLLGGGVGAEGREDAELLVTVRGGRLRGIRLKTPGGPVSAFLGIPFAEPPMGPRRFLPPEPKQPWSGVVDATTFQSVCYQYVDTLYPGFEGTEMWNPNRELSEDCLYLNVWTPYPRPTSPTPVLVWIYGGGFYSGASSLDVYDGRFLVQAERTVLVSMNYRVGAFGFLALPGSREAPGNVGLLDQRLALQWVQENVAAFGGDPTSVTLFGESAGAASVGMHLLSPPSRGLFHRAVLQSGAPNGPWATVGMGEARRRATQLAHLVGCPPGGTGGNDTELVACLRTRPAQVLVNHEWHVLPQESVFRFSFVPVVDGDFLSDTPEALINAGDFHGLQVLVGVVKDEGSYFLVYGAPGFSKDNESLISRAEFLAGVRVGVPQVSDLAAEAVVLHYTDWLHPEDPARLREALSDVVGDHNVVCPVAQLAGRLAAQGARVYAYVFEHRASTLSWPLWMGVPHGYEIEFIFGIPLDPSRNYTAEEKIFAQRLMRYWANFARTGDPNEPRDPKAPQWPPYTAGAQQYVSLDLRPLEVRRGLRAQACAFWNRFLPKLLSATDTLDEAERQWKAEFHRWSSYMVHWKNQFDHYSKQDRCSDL

Cc1ccc(C(C)C)cc1OCC(=O)NCc1ccc2c(c1)OCO2 gave a pIC50 (Acetylcholinesterase [1]) of 5.71 and a pIC50 (Cholinesterase) of 7.30.

With Cc1ccc(C(C)C)cc1OC(=O)COC(=O)/C=C/c1ccc(Cl)cc1 the IC50 (Mushroom tyrosinase) was 6700 nM.

C=CCNCC(O)COc1cc(C(C)C)ccc1C (stereo unspecified) gave a pIC50 (Acetylcholinesterase [2]) of 6.87.

Cc1cc(Cc2cc(C)c(O)cc2C(C)C)c(C(C)C)cc1O gave an IC50 [3] of 122 µg/mL (≈ 390 µM).

In the case of Cc1ccc(C(C)C)cc1OC(=O)[C@@H]1CSC(=O)N1, the MIC (Staphylococcus aureus [4]) was 10 µg/mL (≈ 35.8 µM), the MIC [5] was 10 µg/mL (≈ 35.8 µM) and the MIC (Escherichia coli [6]) was 10 µg/mL (≈ 35.8 µM). It also gave an MIC (Pseudomonas aeruginosa) of 10 µg/mL (≈ 35.8 µM).

Cc1ccc(C(C)C)cc1OC1CC[C@H](O)[C@@H](CO)O1 (stereo partly specified) showed an MIC [7] of 0.5 µg/mL (≈ 1.78 µM).

With C=CCSC[C@H](NC(C)=O)C(=O)Oc1cc(C(C)C)ccc1C the MIC (Staphylococcus aureus [4]) was 2.5 µg/mL (≈ 7.45 µM), the MIC [5] was 2.5 µg/mL (≈ 7.45 µM) and the MIC (Escherichia coli [6]) was 2.5 µg/mL (≈ 7.45 µM). For the same molecule, the MIC (Pseudomonas aeruginosa) was 5 µg/mL (≈ 14.9 µM).

With Cc1ccc(C(C)C)cc1OCC(=O)NNS(=O)(=O)c1cccc(C(F)(F)F)c1 the “inhibition zone (IZ)” value (Escherichia coli [8]) was 10 mm.

Molecule Cc1cc(S(=O)(=O)[O-])c(C(C)C)cc1O.[K+] has an MIC (Escherichia coli [9]) of 5 %v/v, an MIC (Salmonella typhimurium) of 1.25 %v/v and an MIC (Salmonella enteritidis) of 1.25 %v/v. The MIC (Clostridium perfringens [10]) was 0.37 %v/v.

Cc1cccc(COc2cc(C(C)C)ccc2C)c1 showed an MIC (Helicobacter pylori) of 2 µg/mL (≈ 7.86 µM).

With C#CCSC[C@H](NC(C)=O)C(=O)Oc1cc(C(C)C)ccc1C the MIC (Staphylococcus aureus [4]) was 10 µg/mL (≈ 30 µM), the MIC [5] was 5 µg/mL (≈ 15 µM) and the MIC (Escherichia coli [6]) was 10 µg/mL (≈ 30 µM). For the same molecule, the MIC (Pseudomonas aeruginosa) was 10 µg/mL (≈ 30 µM).

In the case of Cc1ccc(C(C)C)cc1OC(=O)[C@@H]1CSCN1C(=O)C(F)(F)F, the MIC (Staphylococcus aureus [4]) was 5 µg/mL (≈ 13.8 µM), the MIC [5] was 2.5 µg/mL (≈ 6.92 µM) and the MIC (Escherichia coli [6]) was 5 µg/mL (≈ 13.8 µM). For the same molecule, the MIC (Pseudomonas aeruginosa) was 10 µg/mL (≈ 27.7 µM).

For Cc1ccc(C(C)C)cc1OC(=O)COC(=O)/C=C/c1ccc(O)cc1, the IC50 (Mushroom tyrosinase) was 6500 nM.

With Cc1ccc(C(C)C)cc1OCC(=O)NNS(=O)(=O)c1ccc(Cl)cc1 the “inhibition zone (IZ)” value (Escherichia coli [8]) was 10 mm.

In the case of Cc1ccc(C(C)C)cc1OC(=O)Cc1ccccc1, the MIC (Escherichia coli [11]) was 11.7 µg/mL (≈ 43.6 µM).

With Cc1ccc(C(C)C)cc1OC(=O)COC(=O)c1ccc(O)c(O)c1 the IC50 (Mushroom tyrosinase) was 15900 nM.

With Cc1ccc(C(C)C)cc1OCC(=O)NCCN1CCCC1 the pIC50 (Acetylcholinesterase [1]) was 5.71 and the pIC50 (Cholinesterase) was 7.30.

In the case of Cc1ccc(C(C)C)cc1OCC(=O)NCCNc1cccc2cccnc12, the pIC50 (Acetylcholinesterase [1]) was 5.71 and the pIC50 (Cholinesterase) was 7.30.

Cc1ccc(C(C)C)cc1OC(=O)Cn1c([N+](=O)[O-])cnc1C showed an MIC (Clostridium perfringens [12]) of 2.7 µg/mL (≈ 8.51 µM).

Work on Cc1ccc(C(C)C)cc1OS(=O)(=O)c1cccs1 yielded an EC50 (Phytophthora capsici) of 0.06124 µg/mL (≈ 0.207 µM).

Cc1ccc(C(C)C)c(/C=N/c2c(C(C)C)ccc(C)c2O)c1O showed a GI50 (MIA PaCa-2) of 16.9 µg/mL (≈ 51.9 µM).

Molecule CCCCCCCCCCCC(=O)Oc1cc(C(C)C)ccc1C has an MIC (Escherichia coli [9]) greater than 10 %v/v, an MIC (Salmonella typhimurium) greater than 10 %v/v and an MIC (Salmonella enteritidis) greater than 10 %v/v. For the same molecule, the MIC (Clostridium perfringens [10]) was less than 10 %v/v.

In the case of CCN(CC)C(=O)COc1cc(C(C)C)ccc1C, the pIC50 (Acetylcholinesterase [1]) was 5.71 and the pIC50 (Cholinesterase) was 7.30.

For Cc1ccc(C(C)C)cc1OCC(=O)Nc1ccc(Cl)cc1, the “inhibition zone (IZ)” value (Bacillus subtilis) was 18 mm, the “inhibition zone (IZ)” value (Proteus vulgaris) was 10 mm and the “inhibition zone (IZ)” value (Staphylococcus aureus [13]) was 20 mm.

Work on Cc1cc(C)c(S(=O)(=O)N/N=C/c2c(C(C)C)ccc(C)c2O)c(C)c1 yielded a GI50 (MIA PaCa-2) of 10 µg/mL (≈ 26.7 µM).

Molecule CCN(CC)CC(O)COc1cc(C(C)C)ccc1C (stereo unspecified) has a pIC50 (Acetylcholinesterase [2]) of 6.87.

Work on CSC[C@H](NC(C)=O)C(=O)Oc1cc(C(C)C)ccc1C yielded an MIC (Staphylococcus aureus [4]) of 10 µg/mL (≈ 32.3 µM), an MIC [5] of 2.5 µg/mL (≈ 8.08 µM) and an MIC (Escherichia coli [6]) of 10 µg/mL (≈ 32.3 µM). The MIC (Pseudomonas aeruginosa) was 10 µg/mL (≈ 32.3 µM).

Cc1ccc(C(C)C)cc1OCC(=O)NC1CCCCC1 gave a pIC50 (Acetylcholinesterase [1]) of 5.71 and a pIC50 (Cholinesterase) of 7.30.

In the case of Cc1ccc(C(C)C)cc1OC(=O)COC(=O)/C=C/c1ccccc1, the IC50 (Mushroom tyrosinase) was 7700 nM.

With CCS(=O)(=O)Oc1cc(C(C)C)ccc1C the EC50 (Phytophthora capsici) was 0.0666 µg/mL (≈ 0.275 µM).

Cc1ccc(C(C)C)cc1OCC(=O)NCCN1CCOCC1 showed a pIC50 (Acetylcholinesterase [1]) of 5.71 and a pIC50 (Cholinesterase) of 7.30.

For Cc1ccc(C(C)C)cc1OCC(=O)N1CCCCC1, the pIC50 (Acetylcholinesterase [1]) was 5.71 and the pIC50 (Cholinesterase) was 7.30.

Molecule Cc1ccc(C(C)C)cc1OCC(=O)NCCN1CCN(C)CC1 has a pIC50 (Acetylcholinesterase [1]) of 5.71 and a pIC50 (Cholinesterase) of 7.30.

Cc1ccc(C(C)C)cc1OCC(O)CNCc1cccnc1 (stereo unspecified) gave a pIC50 (Acetylcholinesterase [2]) of 6.87.

Cc1ccc(C(C)C)c(/C=N/Nc2cc(Cl)ncn2)c1O gave a GI50 (MIA PaCa-2) of 80 µg/mL (≈ 262 µM).
